Test results reported in patent US7645784B2, “Benzimidazole derivatives” (AstraZeneca AB, priority 2003, dated 2010).

Biological target: T1, hVR1 (Homo sapiens, UniProt Q8NER1)
T1 construct: expressed in transfected cells
Assay: hVR1 FLIPR (Fluorometric Image Plate Reader) screening assay, IC50 determination
Type: cell-based
Details: CHO cells stably expressing hVR1
Protocol: 1. hVR1 FLIPR (Fluorometric Image Plate Reader) screening assay
Transfected CHO cells, stably expessing hVR1 (15,000 cells/well) are seeded in 50 μL media in a black clear bottom 384 plate (Greiner) and grown in a humidified incubator (37° C., 2% CO2), 24-30 hours prior to experiment.
Subsequently, the media is removed from the cell plate by inversion and 2 μM Fluo-4 is added using a multidrop (Labsystems). Following the 40 min dye incubation in the dark at 37° C. and 2% CO2, the extracellular dye present is washed away using an EMBLA (Scatron), leaving the cells in 40 μL of assay buffer (1×HBSS, 10 mM D-Glucose, 1 mM CaCl2,10 mM HEPES, 10×7.5% NaHCO3 and 2.5 mM Probenecid).
FLIPR assay—IC50 determination protocol
For IC50 determinations the fluorescence is read using FLIPR filter 1 (em […]). A cellular baseline recording is taken for 30 seconds, followed by a 20 μL addition of 10, titrated half-log concentrations of the test compound, yielding cellular concentration ranging from 3 μM to 0.1 nM. Data is collected every 2 seconds for a further 5 min prior to the addition of a VR1 agonist solution: either 50 nM solution of capsaicin or MES (2-[N-morpholino]ethanesulfonic acid) buffer (pH 5.2), by the FLIPR pipettor. The FLIPR continues to collect data for a further 4 min. Compounds having antagonistic properties against the hVR1 will inhibit the increase in intracellular calcium in response to the capsaicin addition. This consequently leading to a reduction in fluorescence signal and providing a reduced fluorescence reading, compared with no compound, buffer controls. Data is exported by the FLIPR program as a sum of fluorescence calculated under the curve upon the addition of capsaicin. Maximum inhibition, Hill slope and IC50 data for each compound are generated.

T1 sequence (Q8NER1 whole entry): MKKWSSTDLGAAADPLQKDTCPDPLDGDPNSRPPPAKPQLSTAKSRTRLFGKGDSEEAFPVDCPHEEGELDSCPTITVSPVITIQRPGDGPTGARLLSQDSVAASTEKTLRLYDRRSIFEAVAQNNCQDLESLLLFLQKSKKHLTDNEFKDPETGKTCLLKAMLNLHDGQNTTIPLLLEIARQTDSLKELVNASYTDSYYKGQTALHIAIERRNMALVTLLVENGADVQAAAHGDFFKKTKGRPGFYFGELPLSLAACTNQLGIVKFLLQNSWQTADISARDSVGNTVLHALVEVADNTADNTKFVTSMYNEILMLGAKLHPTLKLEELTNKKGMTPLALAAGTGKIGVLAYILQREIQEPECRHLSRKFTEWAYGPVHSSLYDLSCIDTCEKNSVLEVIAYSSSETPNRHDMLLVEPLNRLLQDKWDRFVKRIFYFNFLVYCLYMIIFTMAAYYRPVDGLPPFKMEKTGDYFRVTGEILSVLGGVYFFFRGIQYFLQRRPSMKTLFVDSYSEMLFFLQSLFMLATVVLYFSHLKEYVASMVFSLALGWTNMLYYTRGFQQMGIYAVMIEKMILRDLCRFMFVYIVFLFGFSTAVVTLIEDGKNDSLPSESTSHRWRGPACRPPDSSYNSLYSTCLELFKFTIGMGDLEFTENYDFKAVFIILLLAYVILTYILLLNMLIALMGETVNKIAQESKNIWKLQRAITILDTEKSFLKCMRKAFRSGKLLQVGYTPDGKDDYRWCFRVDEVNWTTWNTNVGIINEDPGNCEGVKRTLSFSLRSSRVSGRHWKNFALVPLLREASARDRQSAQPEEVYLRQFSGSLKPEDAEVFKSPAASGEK

IC50 (agonist H+/MES buffer (pH 5.2)) | IC50 (agonist capsaicin) | Structure (SMILES)
70 nM | 50 nM | O=C(Cn1cnc2cccc([N+](=O)[O-])c21)Nc1cc(F)cc(F)c1 [Example 7, N-(3,5-Difluorophenyl)-2-(7-nitro-1H-benzimidazol-1-yl)acetamide]
140 nM | 160 nM | COC(=O)c1cccc2ncn(CC(=O)Nc3cc(OC)cc(OC)c3)c12 [Example 67, Methyl 1-{2-[(3,5-dimethoxyphenyl)amino]-2-oxoethyl}-1H-benzimidazole-7-carboxylate]
